Results reported in US7683045B2, “Class of γδ T cells activators and use thereof” (Innate Pharma S.A., priority 2005, dated 2010).
“Also recorded” adds a separate entry of the source. Read-outs that look alike come from different tables or passages of the source. One block for each compound: values may come before it.

Columns and labels:
γδ T cells = conditions: reported at best (Wilhelm et al., 2003); cited from earlier work
[1] = tested on: primary polyclonal human Vγ9Vδ2 T cells; assay: TNFα release (cytokine release) assay; type: cell-based; conditions: for relative potency in words: TNFα release assay, comparison of the tested compounds
Method: Cells (primary polyclonal human Vγ9Vδ2 T cells which have been expanded in vitro and stored frozen at day 12-15 of expansion) are thawed and rinsed twice and centrifuged. Upon elimination of supernatant and resuspension of cells, the cells are incubated for 24 h at 37° C. in the presence of IL2 100 IU/ml (final concentration). The cells are washed and centrifuged, following which the supernatant is eliminated and the cells are resuspended and adjusted to the adequate final concentration. The cells are added to the wells of a 96-well plate.
To one row of wells is added a standard dilution series of (R,S)-3-(bromomethyl)-3-butanol-1-yl-diphosphate (R,S-BrHPP). Compounds to be tested, in this case (E)-4-hydroxy-3-methyl-2-butenyl pyrophosphate ((E)-HDMAPP) and the HAngelylPP and HTiglylPP compounds of the Angelyl/Tiglyl phosphoester series are added to experimental wells, after several dilutions.
Full plates are incubated 24 hours at 37° C. for stimulation of the γδ cells with the test compound and reference compounds, in this case HAngelylPP and HTiglylPP, (R,S)—BrHPP and (E) —HDMAPP, as further described below. After this time, 100 μl of culture supernatant is taken for TNFα dosage. Measurement of the released TNFα dosage is performed as described by the manufacturer's instruction in the TNFα enzyme immunoassay kit (ref. 11121, Immunotech—Beckman Coulter). OD at 405 nm is read, the OD being proportional to the concentration of released TNFα in the culture supernatant. The data are processed with the Excel software to compare concentration of test compound versus concentration of TNFα and for the calculation of the EC50 for each test compound.
The bioactivity of the compound HAngelylPP was assessed using a TNFα release assay as described above. Compounds (R,S)—BrHPP and (E)-HDMAPP were included for purpose of comparison. […] As will be appreciated, any other suitable assays such as cell amplification may be used in assessing compounds.

Compound: NCCC(O)(P(=O)(O)O)P(=O)(O)O [pamidronate]
increase in γδ T cell count (γδ T cells): ≤ 2 fold

Compound: (E)-4-hydroxy-2-methylbut-2-enyl pyrophosphate [HTiglylPP]
relative potency in words [1]: highly potent | EC50 ([1]; TNFα release, 24 hours stimulation at 37° C., relative screening test (FIG. 3), read-out: in vitro EC50): 15 nM

Compound: (Z)-4-hydroxy-2-methylbut-2-enyl pyrophosphate [HAngelylPP]
relative potency in words [1]: highly potent; also recorded: the most potent compound of those tested

EC50 ([1]; Homo sapiens, T-cell, TNFα release, 24 hours stimulation at 37° C., relative screening test (FIG. 3), read-out: in vitro EC50): 37.7 nM | EC50 ([1]; Homo sapiens, T-cell, prior assays with calibrated cells using a (R,S)-BrHPP-standard composition, read-out: EC50): ~15 nM
Compound: CC(O)(CBr)CCOP(=O)(O)OP(=O)(O)O (racemic) [(R,S)-BrHPP, (R,S)-3-(bromomethyl)-3-butanol-1-yl-diphosphate, reference compound]
